These results are taken from patent US5075440A, “Novel pyrido[2,3-f](1,4)thiazepines and pyrido[3,2-b](1,5)benzothiazepines” (Ortho Pharmaceutical Corporation, priority 1990, dated 1991).

Molecules are shown by their SMILES. “And” between values parts separate entries of the source, which are not always exact repeats. Equal values may be shown once.

Broadly, the IC50 is the concentration at which inhibition is half-maximal.

For assay [1], the system named is trachealis muscle tissue. As to the kind of experiment: Inhibition of calcium dependent smooth muscle contraction, trachea (P#176 Trach). More on the design: species or system dog. To be noted: 50 mM KCl contraction; for inhibition at 0.01 µM / inhibition at 0.3 µM / inhibition at 2 µM / inhibition at 0.1 µM / inhibition at 0.03 µM: Canis lupus familiaris, read-out: P#176 Trach % INHB/μM. On the procedure:
(§1) The test for inhibition of calcium dependent smooth muscle contraction is determined according to the following procedure:
(§2) The trachea and the aorta from dogs sacrificed by excess KCl injection are stored overnight at 4° C. in oxygenated Krebs-Henseleit buffer. Tracheal rings, one cartilage segment wide (5-10 mm), are cut starting from the bronchial end. Rings of aorta tissue of the same width are also prepared. After cutting the cartilage, the trachealis muscle tissue and the aorta tissue are suspended in oxygenated Krebs-Henseleit buffer at 37° C. in a 25 ml tissue bath. After a 60-minute equilibration period, the tissues are challenged with 10 μM carbachol. After 5 minutes, the tissues are rinsed and allowed to rest 50 minutes. The tissues are then challenged with 50 mM KCl and, after 30 minutes, the contractions are quantitated. The tissues are then rinsed and reequilibrated for 50 minutes. Test compounds are then added for 10 minutes, and the tissue is rechallenged with 50 mM KCl. After 30 minutes, the contraction is recorded and used to determine the % inhibition of control.
(§3) The percent inhibition of smooth muscle contraction is calculated from response data before and after drug treatment. [formula]

The test system of assay [2] is aorta tissue. As to the kind of experiment: Inhibition of calcium dependent smooth muscle contraction, aorta (P#176 Aorta). More on the design: species or system dog. To be noted: 50 mM KCl contraction. On the procedure: as §1, §2, §3
Assay [3] addresses T1, Calcium Channel (3H-nitrendipine binding, heart membranes) (Oryctolagus cuniculus, UniProt P15381).
T1 construct: the heart is immediately removed, cleaned and chopped into small pieces; The tissue is homogenized; from tissue; host or cells: heart membranes of female New Zealand white rabbits (42,000×g pellet)
Description: Inhibition of 3H-nitrendipine binding (P#166 Nit. Binding). More on the design: species or system rabbit. To be noted: for inhibition at 1 µM: @ 1.0 μM test compound; for IC50: rabbit heart membranes, 3H-nitrendipine 0.05-0.50 nM. On the procedure: The assay for inhibition of nitrendipine binding is performed using the following procedure:
Female, New Zealand white rabbits (1-2 kg) are sacrificed by cervical dislocation, and the heart is immediately removed, cleaned and chopped into small pieces. The tissue is homogenized in 5×volume of 0.05M Hepes buffer, pH 7.4. The homogenate is centrifuged at 4000×g for 10 minutes, and the supernatant is recentrifuged at 42,000×g for 90 minutes. The resulting membrane pellet is resuspended (0.7 ml/g weight) in 0.05M Hepes, pH 7.4 and stored at […] until used. Each tube of the binding assay contains ^3 H-nitrendipine (0.05-0.50 nM), buffer, membranes (0.10 ml), and test compound in a total volume of 1.0 ml. After 90 minutes at 4° C., the bound nitrendipine is separated from the unbound by filtration on Whatman GF/C filters. After rinsing, the filters are dried and counted in a liquid scintillation counter.
Non-specific binding of ^3 H-nitrendipine (that amount bound in the presence of excess unlabelled nitrendipine) is subtracted from the total bound to obtain specifically bound radiolabeled nitrendipine. The amount of specifically bound nitrendipine in the presence of a test compound is compared to that amount bound in the absence of a compound. A percent displacement (or inhibition) can then be obtained.

Where [4] appears, read: Canis lupus familiaris, 0.01 μM, read-out: P#176 Aorta % INHB/μM.
[5] abbreviates: Canis lupus familiaris, 0.1 μM, read-out: P#176 Aorta % INHB/μM.
Setting [6] is: Canis lupus familiaris, 1.0 μM, read-out: P#176 Aorta % INHB/μM.
Setting [7] is: Canis lupus familiaris, read-out: P#176 Aorta % INHB/μM.

T1 sequence (P15381 whole entry, other chains not shown): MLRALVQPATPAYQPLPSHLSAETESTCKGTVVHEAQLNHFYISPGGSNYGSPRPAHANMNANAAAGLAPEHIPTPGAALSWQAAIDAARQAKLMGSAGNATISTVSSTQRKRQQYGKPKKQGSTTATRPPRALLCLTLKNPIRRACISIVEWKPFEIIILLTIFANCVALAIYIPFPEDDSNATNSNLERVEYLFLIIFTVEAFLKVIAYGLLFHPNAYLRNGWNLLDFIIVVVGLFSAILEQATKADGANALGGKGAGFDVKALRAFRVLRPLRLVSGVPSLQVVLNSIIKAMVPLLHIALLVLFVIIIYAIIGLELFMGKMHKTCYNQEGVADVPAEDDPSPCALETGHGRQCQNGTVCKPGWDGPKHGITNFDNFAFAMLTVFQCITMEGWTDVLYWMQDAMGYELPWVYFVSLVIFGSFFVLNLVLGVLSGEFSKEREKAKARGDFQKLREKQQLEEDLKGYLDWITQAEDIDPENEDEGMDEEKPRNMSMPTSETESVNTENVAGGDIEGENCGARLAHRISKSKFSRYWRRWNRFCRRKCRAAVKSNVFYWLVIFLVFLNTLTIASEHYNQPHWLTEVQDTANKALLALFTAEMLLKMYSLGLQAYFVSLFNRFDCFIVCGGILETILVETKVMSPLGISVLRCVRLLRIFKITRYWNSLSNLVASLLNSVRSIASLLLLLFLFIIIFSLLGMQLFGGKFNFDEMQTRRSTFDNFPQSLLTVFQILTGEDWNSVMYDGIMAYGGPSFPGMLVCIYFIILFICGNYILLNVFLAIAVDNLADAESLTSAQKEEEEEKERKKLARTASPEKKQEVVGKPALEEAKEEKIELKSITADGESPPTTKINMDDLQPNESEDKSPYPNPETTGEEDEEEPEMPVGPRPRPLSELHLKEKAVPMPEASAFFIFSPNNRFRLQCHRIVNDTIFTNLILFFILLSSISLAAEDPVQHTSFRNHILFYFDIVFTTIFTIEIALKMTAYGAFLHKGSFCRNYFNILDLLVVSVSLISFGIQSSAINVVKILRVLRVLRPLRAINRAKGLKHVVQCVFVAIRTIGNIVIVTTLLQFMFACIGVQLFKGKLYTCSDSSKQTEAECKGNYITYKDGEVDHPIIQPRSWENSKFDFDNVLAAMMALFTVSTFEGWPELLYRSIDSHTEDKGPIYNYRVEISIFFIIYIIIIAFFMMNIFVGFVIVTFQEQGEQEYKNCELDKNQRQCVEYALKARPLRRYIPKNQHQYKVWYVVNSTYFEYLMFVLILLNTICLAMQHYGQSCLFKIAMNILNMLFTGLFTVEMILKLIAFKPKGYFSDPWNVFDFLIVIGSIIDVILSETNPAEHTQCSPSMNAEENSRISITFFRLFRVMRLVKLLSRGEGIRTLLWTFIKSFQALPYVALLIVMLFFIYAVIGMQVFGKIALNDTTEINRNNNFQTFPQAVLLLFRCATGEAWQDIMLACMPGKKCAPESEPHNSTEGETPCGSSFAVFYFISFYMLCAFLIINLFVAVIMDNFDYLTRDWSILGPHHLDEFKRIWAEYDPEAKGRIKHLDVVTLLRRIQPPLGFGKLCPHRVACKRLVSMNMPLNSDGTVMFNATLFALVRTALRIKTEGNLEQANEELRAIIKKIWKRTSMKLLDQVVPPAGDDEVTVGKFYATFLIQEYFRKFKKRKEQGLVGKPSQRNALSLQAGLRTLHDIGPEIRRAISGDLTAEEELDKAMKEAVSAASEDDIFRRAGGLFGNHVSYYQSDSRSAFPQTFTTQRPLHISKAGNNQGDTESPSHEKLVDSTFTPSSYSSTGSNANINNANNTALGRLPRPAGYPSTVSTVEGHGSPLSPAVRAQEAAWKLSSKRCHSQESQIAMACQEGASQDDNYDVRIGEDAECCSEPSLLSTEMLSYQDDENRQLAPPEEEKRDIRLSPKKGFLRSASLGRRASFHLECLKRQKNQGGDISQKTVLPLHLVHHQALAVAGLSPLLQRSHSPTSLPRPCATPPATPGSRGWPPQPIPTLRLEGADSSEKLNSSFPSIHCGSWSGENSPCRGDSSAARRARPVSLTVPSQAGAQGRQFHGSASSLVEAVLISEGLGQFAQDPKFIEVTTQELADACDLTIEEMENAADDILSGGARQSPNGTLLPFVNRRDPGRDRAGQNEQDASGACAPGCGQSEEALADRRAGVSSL
T1 sequence (P13806 27-960 partner limits assumed, other chains not shown): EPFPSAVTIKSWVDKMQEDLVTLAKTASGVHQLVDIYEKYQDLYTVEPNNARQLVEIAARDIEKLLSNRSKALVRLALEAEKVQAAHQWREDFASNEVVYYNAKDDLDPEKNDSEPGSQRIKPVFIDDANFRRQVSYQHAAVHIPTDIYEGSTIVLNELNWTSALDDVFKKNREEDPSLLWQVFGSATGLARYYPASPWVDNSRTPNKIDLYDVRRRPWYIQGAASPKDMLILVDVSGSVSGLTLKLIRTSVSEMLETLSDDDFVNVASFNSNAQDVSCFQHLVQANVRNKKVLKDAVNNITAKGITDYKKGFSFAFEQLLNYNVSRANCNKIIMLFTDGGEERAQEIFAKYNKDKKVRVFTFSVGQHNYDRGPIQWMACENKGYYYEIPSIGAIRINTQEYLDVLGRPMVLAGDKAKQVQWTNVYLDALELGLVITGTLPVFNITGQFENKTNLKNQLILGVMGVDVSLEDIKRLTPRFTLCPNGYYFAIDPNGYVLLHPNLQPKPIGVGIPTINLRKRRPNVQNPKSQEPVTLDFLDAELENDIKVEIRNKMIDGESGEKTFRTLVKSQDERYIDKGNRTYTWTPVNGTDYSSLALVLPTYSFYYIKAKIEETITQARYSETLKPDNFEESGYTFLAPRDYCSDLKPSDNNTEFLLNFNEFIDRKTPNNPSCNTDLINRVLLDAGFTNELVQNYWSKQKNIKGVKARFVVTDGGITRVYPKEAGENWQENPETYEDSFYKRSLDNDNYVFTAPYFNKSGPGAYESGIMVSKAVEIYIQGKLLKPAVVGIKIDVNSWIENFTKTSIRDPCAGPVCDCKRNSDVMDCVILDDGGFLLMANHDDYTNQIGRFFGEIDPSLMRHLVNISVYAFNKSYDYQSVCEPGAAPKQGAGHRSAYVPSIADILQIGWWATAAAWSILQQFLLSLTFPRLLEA
T1 sequence (P13806 961-1106 partner limits assumed, other chains not shown): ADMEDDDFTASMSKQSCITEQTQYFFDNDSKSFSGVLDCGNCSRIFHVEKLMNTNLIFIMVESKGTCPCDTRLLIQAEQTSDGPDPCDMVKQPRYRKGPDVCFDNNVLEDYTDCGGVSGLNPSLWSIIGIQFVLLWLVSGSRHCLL

Take `CCOC(=O)C1=C(C)NC2=C(C1c1cccc(Cl)c1Cl)S(=O)(=O)c1ccccc1N(C=O)C2` (stereo not shown) [2,3-dichloro / CHO / ethyl, Ethyl 4-(2,3-dichlorophenyl)-5,5-dioxo-10-formyl-2-methyl-1,4,10,11-tetrahydropyrido[3,2-b][1,5]-benzothiazepine-3-carboxylate]: in assay [1], the inhibition at 0.01 µM was 38% and the inhibition at 0.3 µM was 35%. Moreover, the inhibition at 2 µM in assay [1] (2.0 μM) was 73%. Moreover, in assay [2] (setting [4]), the inhibition at 0.01 µM was 33%. In assay [2] (setting [5]), the inhibition at 0.1 µM came out at 50%. The inhibition at 1 µM in assay [2] (setting [6]) was 74%.

Turning to `CCOC(=O)C1=C(C)NC2=C(C1c1c(F)c(F)c(F)c(F)c1F)S(=O)(=O)CCN(C(=O)OC(C)(C)C)C2` (stereo not shown) [pentafluoro / BOC / ethyl], the inhibition at 1 µM in assay [3] came to 24%; in assay [2] (setting [6]) it was 37%. The inhibition at 2 µM in assay [1] (2.0 μM) amounted to 7%. Also, the inhibition at 0.1 µM in assay [2] (setting [5]) worked out at 0%.

As for `CCOC(=O)C1=C(C)NC2=C(C1c1cccc(Cl)c1Cl)S(=O)(=O)CCN(C)C2` (stereo not shown) [2,3-dichloro / Me / ethyl, Ethyl 9-(2,3-dichlorophenyl)-4,7-dimethy-1,1-dioxo-2,3,4,5,6,9-hexahydropyrido[2,3-f][1,4]thiazepine-8-carboxylate], in assay [3], the IC50 was found to be 0.12 µM. Besides, the results for the inhibition at 0.01 µM in assay [1] and in assay [2] (setting [4]) were 55% and 67%, respectively. The inhibition at 0.1 µM in assay [1] (0.1 μM) was 80%; in assay [2] (setting [5]), 96%. The inhibition at 2 µM in assay [1] (2.0 μM) was 98%. For the same compound, the inhibition at 1 µM in assay [2] (setting [6]) was 97%.

`CCOC(=O)C1=C(C)NC2=C(C1c1cccc(Cl)c1Cl)S(=O)(=O)CCN(C(=O)CN)C2` (stereo not shown) [2,3-dichloro / NH2 CH2 CO / ethyl]: the inhibition at 0.3 µM in assay [1] is 6%. Moreover, in assay [1] (2.0 μM), the inhibition at 2 µM was determined as 36%. The inhibition at 1 µM in assay [2] (setting [6]) stood at 20%.

Consider `CCOC(=O)C1=C(C)NC2=C(C1c1cccc(Cl)c1Cl)S(=O)(=O)CCN(C(C)C)C2` (stereo not shown) [2,3-dichloro / iPr / ethyl], for which, in assay [3], the IC50 was 0.072 µM. For the same compound, the values for the inhibition at 0.1 µM in assay [1] (0.1 μM) and in assay [2] (setting [5]) were 37% and 83%, respectively. Further, the inhibition at 0.3 µM in assay [1] amounted to 61%. For the same compound, in assay [1] (2.0 μM), the inhibition at 2 µM was 86%. For the same compound, the inhibition at 0.01 µM in assay [2] (setting [4]) amounted to 38%. The inhibition at 1 µM in assay [2] (setting [6]) came out at 95%.

In the case of `CCOC(=O)C1=C(C)NC2=C(C1c1c(F)c(F)c(F)c(F)c1F)S(=O)(=O)CCNC2` (stereo not shown) [pentafluoro / H / ethyl, Ethyl 1,1-dioxo-2,3,4,5,6,9-hexahydro-7-methyl-9-(2,3,4,5,6-pentafluorophenyl)-pyrido[2,3-f][1,4]-thiazepine-8-carboxylate], the IC50 in assay [3] was found to be 0.09 µM. The figures for the inhibition at 0.01 µM in assay [1] and in assay [2] (setting [4]) were 13% and 61%, respectively. The results for the inhibition at 0.1 µM in assay [1] (0.1 μM) and in assay [2] (setting [5]) were 63% and 89%, respectively. Further, the inhibition at 2 µM in assay [1] (2.0 μM) was found to be 98%. In assay [2] (setting [6]), the inhibition at 1 µM was determined as 95%.

On to `CCOC(=O)C1=C(C)NC2=C(C1c1ccccc1C(F)(F)F)S(=O)(=O)CCN(C(=O)OC(C)(C)C)C2` (stereo not shown) [2-CF3 / BOC / ethyl], for which the results for the inhibition at 1 µM in assay [3] and in assay [2] (setting [6]) were 7% and 47%, respectively. Moreover, the inhibition at 0.3 µM in assay [1] was found to be 24%. Also, in assay [1] (2.0 μM), the inhibition at 2 µM stood at 50%. Besides, the inhibition at 0.1 µM in assay [2] (setting [5]) is 37%.

`CCOC(=O)C1=C(C)NC2=C(C1c1cccc([N+](=O)[O-])c1)S(=O)(=O)CCN(CC)C2` (stereo not shown) [3-nitro / Et / ethyl, Ethyl 1,1-dioxo-4-ethyl-2,3,4,5,6,9-hexahydro-7-methyl-9-(3-nitrophenyl)-pyrido[2,3-f][1,4]-thiazepine-8-carboxylate]: in assay [1], the inhibition at 0.03 µM worked out at 50% and the inhibition at 0.3 µM came out at 92%. Further, the inhibition at 0.1 µM in assay [1] (0.1 μM) amounted to 73%. In assay [2] (setting [4]), the inhibition at 0.01 µM came out at 5%. For the same compound, in assay [2] (setting [5]), the inhibition at 0.1 µM amounted to 73%.

For `CCCCCCCN1CCS(=O)(=O)C2=C(C1)NC(C)=C(C(=O)OCC)C2c1cccc(Cl)c1Cl` (stereo not shown) [2,3-dichloro / hept / ethyl], in assay [1] (2.0 μM), the inhibition at 2 µM is 27%. In addition, the inhibition at 0.1 µM in assay [2] (setting [5]) was found to be 4%.

On to `CC(=O)OCCOC(=O)C1=C(C)NC2=C(C1c1cccc(Cl)c1Cl)S(=O)(=O)CCNC2` (stereo not shown) [2,3-dichloro / H / 2-acetoxyethyl, 2-Acetoxyethyl 9-(2,3-Dichlorophenyl) -1,1-dioxo-2,3,4,5,6,9-hexahydro-7-methylpyrido [2,3-f][1,4]thiazepine-8-carboxylate], for which the inhibition at 0.1 µM in assay [2] (setting [5]) was found to be 18%. The inhibition at 0.3 µM in assay [2] (Canis lupus familiaris, 0.3 μM, read-out: P#176 Aorta % INHB/μM) is 62%. For the same compound, the inhibition at 1 µM in assay [2] (setting [6]) was 72%.

As to `CCOC(=O)C1=C(C)NC2=C(C1c1cccc(Cl)c1Cl)S(=O)(=O)CCNC2` (single isomer, unassigned) [2,3-dichloro / H / ethyl, Ethyl 9-(2,3-dichlorophenyl)-1,1-dioxo-2,3,4,5,6,9-hexahydro-7-methylpyrido[2,3-f][1,4]-thiazepine-8-carboxylate], in assay [1], the inhibition at 0.03 µM worked out at 25% and the inhibition at 0.3 µM turned out to be 24%.

Take `CCOC(=O)C1=C(C)NC2=C(C1c1ccccc1[N+](=O)[O-])S(=O)(=O)CCNC2` (stereo not shown) [2-nitro / H / ethyl]: the inhibition at 0.1 µM in assay [1] (0.1 μM) was 12%; in assay [2] (setting [5]) it was 47%. The inhibition at 0.3 µM in assay [1] was 45%. Besides, the inhibition at 2 µM in assay [1] (2.0 μM) stood at 75%. Further, the inhibition at 0.01 µM in assay [2] (setting [4]) came to 27%. The inhibition at 1 µM in assay [2] (setting [6]) was found to be 77%.

On to `CC1=C(C(=O)OCCN(C)Cc2ccccc2)C(c2cccc(Cl)c2Cl)C2=C(CN(C)CCS2(=O)=O)N1` (stereo not shown) [2,3-dichloro / Me / NBzNMe-ethyl], for which, in assay [3], the IC50 turned out to be 0.15 µM. Moreover, in assay [1], the inhibition at 0.03 µM was determined as 28% and the inhibition at 0.3 µM amounted to 71%. In addition, in assay [1] (0.1 μM), the inhibition at 0.1 µM came to 54%. Moreover, in assay [1] (2.0 μM), the inhibition at 2 µM is 88%.

For the compound `CC(=O)OCCOC(=O)C1=C(C)NC2=C(C1c1cccc(Cl)c1Cl)S(=O)(=O)CCN(C)C2` (stereo not shown) [2,3-dichloro / Me / 2-acetoxyethyl, 2-Acetoxyethyl 9-(2,3-dichlorophenyl)-4,7-dimethyl-1,1-dioxo-2,3,4,5,6,9-hexahydropyrido[2,3-f][1,4]-thiazepine-8-carboxylate], the inhibition at 0.01 µM in assay [2] (setting [4]) was 0%. For the same compound, the inhibition at 0.1 µM in assay [2] (setting [5]) was found to be 26%. Besides, in assay [2] (setting [6]), the inhibition at 1 µM worked out at 89%.

Turning to `CCOC(=O)C1=C(C)NC2=C(C1c1cccc(Cl)c1Cl)S(=O)(=O)CCNC2` (single isomer, unassigned) [2,3-dichloro / H / ethyl] [Ethyl 9-(2,3-dichlorophenyl)-1,1-dioxo-2,3,4,5,6,9-hexahydro-7-methylpyrido[2,3-f][1,4]-thiazepine-8-carboxylate], the “P#176 Trach % INHB/μM” value in assay [1] (0.1 μM) is 2% and 47%; in assay [1] (2.0 μM), 54% and 96%. For the same compound, the “P#176 Aorta % INHB/μM” value in assay [2] (0.01 μM) was 0% and 14%; in assay [2] (0.1 μM) it was 0% and 67%; in assay [2] (1.0 μM), 69% and 97%.

In the case of `CC1=C(C(=O)OCCO)C(c2cccc(Cl)c2Cl)C2=C(CN(C)CCS2(=O)=O)N1` (stereo not shown) [2,3-dichloro / Me / 2-hydroxyethyl], the inhibition at 0.1 µM in assay [2] (setting [5]) was 14%. Moreover, the inhibition at 1 µM in assay [2] (setting [6]) is 62%. Besides, the inhibition at 3 µM in assay [2] (Canis lupus familiaris, 3.0 μM, read-out: P#176 Aorta % INHB/μM) amounted to 77%. In assay [2] (setting [7]), the inhibition at 10 µM came out at 95%.

Take `CC1=C(C(=O)OCCO)C(c2cccc(Cl)c2Cl)C2=C(CNCCS2(=O)=O)N1` (stereo not shown) [2,3-dichloro / H / 2-hydroxyethyl]: the inhibition at 1 µM in assay [2] (setting [6]) is 0%. For the same compound, in assay [2] (setting [7]), the inhibition at 10 µM turned out to be 56%.
